Entries after “also recorded” stand apart in the source; their conditions may differ.
Assays:
[1] = test system: HeLa cells expressing FUS GFP; assay: Stress granule formation in HeLa FUS GFP cells under different stresses; type: cell-based; settings: 10 μM; mitochondrial (rotenone), hyperosmotic (sorbitol) or arsenate stress
Procedure: The stressor, arsenate, will react with the thiol groups of lipoamide. Therefore, to exclude the possibility that lipoamide is acting only by removing the stressor, so it was further tested whether lipoic acid can prevent stress granule formation triggered by other stresses than arsenate (an oxidative) stress: Mitochondrial electron transport chain inhibition (rotenone), heat stress (42° C.), hyperosmotic stress (sorbitol, a non-metabolisable sugar), glycolysis inhibition ([…] in the absence of glucose) or serum starvation.
Various cellular stresses were achieved by replacing 1 h 1 mM potassium arsenate treatment with other conditions: 100 μM rotenone (R8875, Sigma Aldrich) from a 1 M stock in DMSO for 2 h (mitochondrial stress). […] Sorbitol (S1876, Sigma Aldrich) from a 4 M stock in H2O for 1 h (osmotic stress). 42° C. in normal growth medium for 30 m (heat stress). […] Appropriate solvent controls were used.

FUS GFP = molecular target: T1, FUS GFP (Homo sapiens, UniProt P35637); assay: Salt (KCl) sensitivity of FUS GFP droplet formation in vitro; type: biochemical; settings: 100 μM compound, 2.8 μM FUS GFP
T1 construct: His MBP (N, cleaved yes); made in house; host or cells: baculovirus/insect cell expression system
T1 sequence (P35637 1-526): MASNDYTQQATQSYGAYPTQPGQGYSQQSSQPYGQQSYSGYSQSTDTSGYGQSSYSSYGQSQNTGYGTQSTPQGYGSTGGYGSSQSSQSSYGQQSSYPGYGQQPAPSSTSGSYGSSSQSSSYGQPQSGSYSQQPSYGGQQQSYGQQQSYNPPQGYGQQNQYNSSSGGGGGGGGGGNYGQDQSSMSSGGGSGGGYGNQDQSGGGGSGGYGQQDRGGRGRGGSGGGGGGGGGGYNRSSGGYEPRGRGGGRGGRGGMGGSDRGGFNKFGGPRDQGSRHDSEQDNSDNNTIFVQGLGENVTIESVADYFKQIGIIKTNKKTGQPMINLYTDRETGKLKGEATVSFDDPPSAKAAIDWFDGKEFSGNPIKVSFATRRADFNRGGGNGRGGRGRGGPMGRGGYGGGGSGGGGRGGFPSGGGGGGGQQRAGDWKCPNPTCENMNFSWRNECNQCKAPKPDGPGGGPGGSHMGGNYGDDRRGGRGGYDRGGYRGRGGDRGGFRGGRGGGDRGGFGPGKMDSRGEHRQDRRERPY
Procedure: FIG. 6A) Droplets formed by 2.8 μM FUS GFP in vitro with different concentrations of KCl (which inhibits droplet formation) with 100 μM lipoamide, lipoic acid or equivalent DMSO solvent control (1%). Lipoamide and lipoic acid subtly promote droplet formation. FIG. 6B) Effect of lipoamide and lipoic acid on G156E FUS GFP droplet ‘aging’ while shaking, relative to an equivalent DMSO solvent control (0.3%). Both compounds delay fibre formation. FIG. 6C) Representative fluorescence recovery after photobleaching (FRAP) of FUS droplets and fibres formed during the aging shown in FIG. 6B). Aged droplets treated with lipoamide or lipoic acid retain fast FRAP indicating liquidity. FIG. 6D) Quantitation of fluorescence signal intensity illustrated in FIG. 6C). Error bars represent standard deviation.
It was determined if lipoic acid or lipoamide affected the conditions under which FUS would phase separate in vitro. […]
For in vitro solidification assays, FUS GFP in storage buffer was diluted in water to give 10 μM FUS, 50 mM Tris·HCl pH 7.4 and 1 mM DTT in a 20 μl volume in non-binding clear bottom 384 well plates (Greiner Bio-One, 781906). […] Fibre and droplet formation were analysed by widefield epifluorescence using a DeltaVision Elite microscope (GE Healthcare Life Sciences) with a Plan ApoN 60× NA 1.4 oil immersion objective (Olympus) and an sCMOS camera (PCO). […]

[2] = test system: D. melanogaster overexpressing human wild type FUS or ALS-associated FUS mutations; assay: Climbing assay: motor defects in D. melanogaster expressing human FUS; type: in vivo, Drosophila melanogaster; settings: for motor defect / ability to climb: flies expressing wild-type FUS, FUS P525L or FUS R521C
Procedure: All Drosophila stocks were maintained on standard cornmeal at 25° C. in light/dark controlled incubator. The w1118, UAS-eGFP, and D42-GAL4 were obtained from Bloomington stock center. The UAS-FUS WT, UAS-FUS P525L, and UAS-FUS R521C were previously described in Anderson et al. (Hum. Mol. Genet. 27, 1366-1381, 2018).
Climbing assays were performed as previously described. Briefly, flies expressing FUS, eGFP or w1118 were grown in the presence or absence of (±)-α-Lipoic Acid (0.43 mM or 2.15 mM diluted in ethanol), (R)-(+)-α-Lipoic Acid (0.43 mM or 2.15 mM diluted in ethanol), (S)-(−)-α-Lipoic Acid (0.43 mM or 2.15 mM diluted in ethanol), (±)-α-Lipoamide (0.43 mM diluted in DMSO), or PP 242/Torkinib (10 μM or 50 μM diluted in DMSO), then anesthetised, placed into vials and allowed to acclimatise for 15 mins in new vials. For each fly genotype, the vial was knocked three times on the base on a bench and a video camera was used to record the flies climbing up the vial walls. The percentage of flies that climbed 4 cm in 30 s was recorded. Statistical analysis was carried out in GraphPad Prism 6 using either Student's T-test or one-way ANOVA with Tukey's or Dunnet's multiple comparisons test.

| Structure (SMILES) | stress granule formation [1] | conditions (KCl concentration) under which FUS phase separates (FUS GFP) | motor defect / ability to climb [2] | flies able to climb 4 cm in 30 s ([2]; food supplementation, from ˜50% without) [%] |
| --- | --- | --- | --- | --- |
| NC(=O)CCCCC1CCSS1 (racemic) [lipoamide, 5-(1,2-dithiolan-3-yl)pentanamide] | reduced stress granule formation | slightly increasing the minimum KCl concentration at which phase separation would occur | recovers defects in motor function | – |
| O=C(O)CCCCC1CCSS1 (racemic) [lipoic acid, 5-(1,2-dithiolan-3-yl)pentanoic acid] | reduced stress granule formation | slightly increasing the minimum KCl concentration at which phase separation would occur | recovered the motor defect in a dose-dependent manner; also recorded: dose-dependent increase in the ability | > 80 |
